Settings: 343.18 K, Liquid, Vibrating tube method

FC(F)=C(F)C(F)(F)F [hexafluoropropene]
Settings | mass density [kg/m3]
2323.3 kPa | 1027.29
2331.8 kPa | 1027.71
2340.3 kPa | 1028.3
2348.6 kPa | 1028.71
2357.9 kPa | 1029.39
2367.9 kPa | 1029.94
2376.2 kPa | 1030.38
2386.7 kPa | 1030.85
2396.9 kPa | 1031.35
2403.7 kPa | 1031.5
2413.7 kPa | 1032.28
2426.4 kPa | 1032.67
2437.3 kPa | 1033.33
2447 kPa | 1034.04
2457.9 kPa | 1034.52
2464 kPa | 1034.92
2470.6 kPa | 1035.47
2480.5 kPa | 1035.86
2486.7 kPa | 1036.28
2497.1 kPa | 1037.07
2503.3 kPa | 1037.46
2522.8 kPa | 1038.69
2540.4 kPa | 1039.48
2556.8 kPa | 1040.31
2578.1 kPa | 1041.52
2596.9 kPa | 1042.44
2616.9 kPa | 1043.45
2632.9 kPa | 1044.34
2650.6 kPa | 1045.42
2671.6 kPa | 1046.57
2693 kPa | 1047.89
2710.6 kPa | 1048.77
2730.2 kPa | 1049.48
2747.6 kPa | 1050.19
2764.4 kPa | 1050.73
2782.1 kPa | 1051.54
2799.6 kPa | 1052.3
2815.7 kPa | 1053.03
2831.9 kPa | 1053.99
2852.2 kPa | 1055
2887.1 kPa | 1056.99
2909.8 kPa | 1058.07
2930.4 kPa | 1058.89
2950.3 kPa | 1059.55
2967.4 kPa | 1060.2
2986 kPa | 1061.16
3013.7 kPa | 1062.17
3046.6 kPa | 1063.75
3078.2 kPa | 1064.77
3103.6 kPa | 1065.88
3134.8 kPa | 1067.08
3168.5 kPa | 1068.48
3201.9 kPa | 1069.74
3235.7 kPa | 1071.04
3266.7 kPa | 1072.23
3300.3 kPa | 1073.66
3332 kPa | 1075.03
3361.4 kPa | 1076.36
3394.9 kPa | 1077.6
3430.3 kPa | 1078.63
3463.3 kPa | 1079.82
3496.3 kPa | 1081.01
3518.3 kPa | 1081.82
3550.7 kPa | 1083.01
3586.6 kPa | 1084.11
3619.2 kPa | 1085.32
3651.4 kPa | 1086.39
3686 kPa | 1087.66
3728.2 kPa | 1089.03
3764.5 kPa | 1090.25
3805.5 kPa | 1091.78
3846.6 kPa | 1092.95
3882.5 kPa | 1093.89
3923.8 kPa | 1095.4
3956.8 kPa | 1096.28
3999.1 kPa | 1097.44
4049.2 kPa | 1099.28
4092.3 kPa | 1100.59
4134.3 kPa | 1101.91
4183.8 kPa | 1102.89
4226.9 kPa | 1104.11
4279.1 kPa | 1105.63
4326.3 kPa | 1106.67
4369.2 kPa | 1107.87
4410.8 kPa | 1109.1
4451.8 kPa | 1110.42
4504 kPa | 1111.78
4556.4 kPa | 1112.8
4599.1 kPa | 1114.05
4697.6 kPa | 1116.51
4742.5 kPa | 1117.74
4786.3 kPa | 1118.99
4833.9 kPa | 1120.08
4887.4 kPa | 1121.18
4933.1 kPa | 1122.24
4985.1 kPa | 1123.76
5029 kPa | 1124.72
5073.9 kPa | 1125.85
5132.4 kPa | 1127.18
5174 kPa | 1128.12
5238.1 kPa | 1129.48
5301.9 kPa | 1130.82
5346.6 kPa | 1131.66
5387.9 kPa | 1132.67
5429.7 kPa | 1133.71
5474 kPa | 1134.83
5517.7 kPa | 1135.51
5596.3 kPa | 1137.23
5658.9 kPa | 1138.61
5702.1 kPa | 1139.38
5743.1 kPa | 1140.46
5803.5 kPa | 1141.76
5846.3 kPa | 1142.59
5891.3 kPa | 1143.58
5933.5 kPa | 1144.39
5995 kPa | 1145.68
6036 kPa | 1146.23
6160 kPa | 1148.79
6218.2 kPa | 1149.66
6324.7 kPa | 1151.65
6365.2 kPa | 1152.43
6407.3 kPa | 1153.32
6470.4 kPa | 1154.32
6550 kPa | 1155.81
6660.8 kPa | 1157.92
6725.9 kPa | 1159.01
6839.7 kPa | 1161.35
6887 kPa | 1162.02
6930.3 kPa | 1162.69
6976.6 kPa | 1163.25
7038.7 kPa | 1164.35
7080.9 kPa | 1165.18
7123.3 kPa | 1165.76

— the NIST ThermoML archive (doi:10.1021/je900596d)
